Results published in patent US20260256699A1, “BIOACTIVE MICROSPHERE AND METHOD FOR PREPARATION THEREOF” (priority 2021, published 2026).

Assay: Stability of vitamin D2 in milk boiled twice (relative assay)
Type: physicochemical
Procedure: In an example, the effect of bioactive microsphere of the present disclosure on the stability of bioactive, when subjected to the deteriorating effect of processing parameter such as heating, was studied. The stability of vitamin D2 was determined by heating the milk containing the bioactive microsphere as prepared in Example 1, and the milk containing pure vitamin D2, i.e., control vitamin D2.
For the purpose of this example, both the vitamin D2 containing milk were boiled twice, and the amount of vitamin D2 was determined after second boiling, as shown in Table 1. The difference in the amount of vitamin D2 in the milk before boiling, and after the second boiling, illustrated the deteriorating effect of heat on the vitamin D2.

C=C1CC[C@H](O)C/C1=C/C=C1\CCC[C@]2(C)[C@@H]([C@H](C)/C=C/[C@H](C)C(C)C)CC[C@@H]12 [Control vitamin D2, vitamin D2]
Stability of vitamin D2 in milk on boiling (in words) (milk, boiled two times): deactivated on boiling | % Relative assay Before boiling (%) (vitamin D2 in milk, before boiling): 100% | % Degradation (vitamin D2 in milk, before boiling vs after second boiling): 65% | % Relative assay After second boiling (%) (vitamin D2 in milk, boiled twice, after second boiling): 35%
